US20170073337A1, “DIHYDROTHIAZINE AND DIHYDROOXAZINE DERIVATIVES HAVING BACE1 INHIBITORY ACTIVITY” (Shionogi & Co., Ltd., priority 2014, published 2017)

Experiments:
[1] = test system: Aβ production in neuroblastoma SH-SY5Y cells (SH/APPwt); test: β-amyloid (Aβ) production inhibitory effect in cell: 96-well; type: cell-based; settings: Homo sapiens, Assay format 96-well
Description: Neuroblastoma SH-SY5V cells (SH/APPwt) with human wild-type R-APP excessively expressed therein were prepared at 8×10^5 cells/mL, and 150 μl portions thereof were inoculated into each well of a 96-well culture plate (Falcon). The cells were cultured for 2 hours at […]. in a 5% gaseous carbon dioxide incubator. […] Namely, the final DMSO concentration was 1%, and the amount of the cell culture was 200 μl. After the incubation was performed for 24 hours from the addition of the test compound, 100 μl of the culture supernatant was collected from each fraction. The amount of the Aβ in each fraction was measured. The Aβ amount was measured as follows. 10 μl of a homogeneous time resolved fluorescence (HTRF) measurement reagent (Amyloid β1-40 peptide: CIS bio international) and 10 μof the culture supernatant were put into a 384-well half area microplate (black microplate, Costar) and mixed with each other, and then left standing overnight at 4° C. while the light was shielded.

[2] = molecular target: T1, P-gp (MDR1 expressing LLC-PK1 cells) (Homo sapiens, UniProt P08183); test: P-gp substrate test; type: in vitro ADME; settings: net flux = Efflux Ratio in MDR1 expressing cells / Efflux Ratio in parent LLC-PK1 cells
T1 construct: host or cells: LLC-PK1
T1 sequence (P08183 whole entry): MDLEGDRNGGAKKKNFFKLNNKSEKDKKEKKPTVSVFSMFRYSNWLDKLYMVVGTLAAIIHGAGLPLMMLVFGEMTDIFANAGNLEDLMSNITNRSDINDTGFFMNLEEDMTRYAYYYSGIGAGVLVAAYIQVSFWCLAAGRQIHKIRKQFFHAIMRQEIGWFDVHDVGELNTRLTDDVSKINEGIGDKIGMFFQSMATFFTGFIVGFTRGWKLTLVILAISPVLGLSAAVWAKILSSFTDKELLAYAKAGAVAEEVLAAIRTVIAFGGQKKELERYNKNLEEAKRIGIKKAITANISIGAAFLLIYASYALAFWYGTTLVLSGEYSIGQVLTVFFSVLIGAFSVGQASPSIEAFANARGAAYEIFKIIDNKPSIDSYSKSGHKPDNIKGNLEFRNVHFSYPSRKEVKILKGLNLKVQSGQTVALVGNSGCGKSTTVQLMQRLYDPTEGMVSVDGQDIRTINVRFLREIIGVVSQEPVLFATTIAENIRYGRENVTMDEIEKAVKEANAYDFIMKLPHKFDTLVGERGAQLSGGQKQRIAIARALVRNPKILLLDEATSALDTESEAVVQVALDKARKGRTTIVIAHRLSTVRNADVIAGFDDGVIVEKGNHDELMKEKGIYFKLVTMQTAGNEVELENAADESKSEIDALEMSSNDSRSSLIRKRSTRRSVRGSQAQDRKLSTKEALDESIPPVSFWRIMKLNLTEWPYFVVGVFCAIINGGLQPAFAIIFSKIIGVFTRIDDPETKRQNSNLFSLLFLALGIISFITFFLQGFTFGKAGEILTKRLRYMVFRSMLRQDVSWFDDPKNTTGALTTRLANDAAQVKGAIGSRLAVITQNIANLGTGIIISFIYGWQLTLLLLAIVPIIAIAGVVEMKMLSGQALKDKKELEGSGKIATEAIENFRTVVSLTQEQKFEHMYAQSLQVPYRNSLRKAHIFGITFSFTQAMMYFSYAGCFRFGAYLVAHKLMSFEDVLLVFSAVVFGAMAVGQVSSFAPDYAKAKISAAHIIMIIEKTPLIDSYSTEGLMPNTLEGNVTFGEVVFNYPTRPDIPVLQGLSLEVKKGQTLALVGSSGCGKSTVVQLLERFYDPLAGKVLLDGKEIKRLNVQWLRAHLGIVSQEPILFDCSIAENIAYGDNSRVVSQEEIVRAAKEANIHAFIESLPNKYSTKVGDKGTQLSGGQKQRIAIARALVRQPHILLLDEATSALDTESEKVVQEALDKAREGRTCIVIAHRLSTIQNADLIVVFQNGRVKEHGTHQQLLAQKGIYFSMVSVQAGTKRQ
Description: • 1. Cell line: • a. MDR/LLC-PK1 (Becton Dickinson) • b. LLC-PK1 (Becton Dickinson) • 2. Reference substrates: • a Digoxin (2 μM)
1. […] After incubation for designed time at 37° C., an aliquot (50 μL) of transport buffer in the donor and receiver side were collected. Assay was performed by duplicate or triplicate. 3. Reference substrate and the present invention in the aliquot was quantified by LC/MS/MS.
Pc(cm/sec)−Permeated amount (pmol)/area of cell membrane (cm2)/initial concentration (nM)/incubation time (sec)
The efflux ratio was calculated using the following equation:
Efflux Ratio=Basolateral-to-Apical Pe/Apical-to-Basolateral Pe
The net flux was calculated using the following equation
Net flux=Efflux Ratio in MDK1 expressing cells/Efflux Ratio in parent cells

[3] = Pharmacokinetic study (oral absorption); type: in vivo; settings: bioavailability from AUCs of oral and intravenous administration; mouse or rat
Description: (1l) Animal: mouse or rat (2) Breeding conditions: mouse or rat was allowed free access to the tap water and the solid food. (3) Dose and grouping: orally or intravenously administered at a predetermined dose: grouping was as follows (Dose depends on the compound) Oral administration: 1 to 30 mg/kg (n=2 to 3) Intravenous administration: 0.5 to 10 mg/kg (n=2 to 3) (4) Dosing formulation: for oral administration, in a solution or a suspension state; for intravenous administration, in a solubilized state (5) Dosing method: in oral administration, forcedly administer using a syringe attached a flexible feeding tube; in intravenous administration, administer from caudal vein using a syringe attached with a needle. (6) Evaluation items: blood was collected at the scheduled time, and the plasma concentration of the compound of the present invention was measured by LC/MS/MS (7) Statistical analysis: regarding the transition of the plasma concentration of the compound of the present invention, the area under the plasma concentration-time curve (AUC) was calculated by non-linear least squares program WinNonlin (Registered trademark), and the bioavailability (BA) of the compound of the present invention was calculated from the AUCs of the oral administration group and intravenous administration group

IC50 [1] [nM] | ER ratio (Cell: MDR1/LLC-PK1) [2] | BA_% [3] [%] | Structure (SMILES)
 | 1.4 |  | C[C@H]1SC(N)=N[C@](C)(c2cccc(NC(=O)c3cnc(OCF)cn3)c2)[C@H]1F [Compound I-104]
 | 1.5 |  | COC[C@H]1SC(N)=N[C@](C)(c2cc(NC(=O)c3cnc(OCF)cn3)ccc2F)[C@H]1F [Compound I-91]
 | 0.96 |  | C[C@]1(c2cc(NC(=O)c3cnc(OCF)cn3)ccc2F)N=C(N)O[C@H](C(F)(F)C2CC2)[C@@H]1F [Compound I-82]
 | 1.9 |  | C[C@H]1SC(N)=N[C@](C)(c2cccc(NC(=O)c3cnc(C(F)F)cn3)c2)[C@H]1F [Compound I-106]
 | 3.4 |  | CO[C@H]1[C@@H](C)SC(N)=N[C@]1(C)c1cc(NC(=O)c2cnc(OCF)cn2)ccc1F [Compound I-87]
 | 3.2 |  | C[C@H]1SC(N)=N[C@](C)(c2cc(NC(=O)c3ncc(C#N)cc3Cl)ccc2F)[C@H]1F [Compound I-64]
 | 8.5 |  | C[C@]1(c2cc(NC(=O)c3cnc(OCF)cn3)ccc2F)N=C(N)S[C@H](CO)[C@@H]1F [Compound I-109]
 | 3.1 |  | COc1cnc(C(=O)Nc2ccc(F)c([C@@]3(C)N=C(N)S[C@H](C)[C@@H]3OC)c2)cn1 [Compound I-90]
 | 1.4 |  | COc1cnc(C(=O)Nc2cccc([C@@]3(C)N=C(N)S[C@H](C)[C@@H]3F)c2)cn1 [Compound I-103]
 | 1.4 |  | COc1ccc(C(=O)Nc2ccc(F)c([C@@]3(C)N=C(N)S[C@H](C)[C@@H]3F)c2)nn1 [Compound I-108]
 | 0.8 |  | CC(F)(F)[C@H]1OC(N)=N[C@](C)(c2cc(NC(=O)c3cnc(OCC(F)(F)F)cn3)ccc2F)[C@H]1F [Compound I-75]
 | 1.1 |  | C[C@]1(c2cc(NC(=O)c3ccc(OCF)cn3)ccc2F)N=C(N)O[C@H](C2(F)CC2)[C@@H]1F [Compound I-101]
 | 1.1 |  | C[C@H]1SC(N)=N[C@](C)(c2cc(NC(=O)c3cnc(C(F)F)cn3)ccc2F)[C@H]1F [Compound I-65]
 | 1.7 |  | COCC(F)(F)[C@H]1OC(N)=N[C@](C)(c2cc(NC(=O)c3cnc(OCF)cn3)ccc2F)[C@H]1F [Compound I-79]
 | 0.7 |  | C[C@H]1SC(N)=N[C@](C)(c2cc(NC(=O)c3cnc(OCF)cn3)ccc2F)C12CC(F)(F)C2 [Compound I-62]
 | 2.0 |  | C[C@]1(c2cc(NC(=O)c3ccc(C#N)cn3)ccc2F)N=C(N)O[C@H](C2(F)CC2)[C@@H]1F [Compound I-96]
 | 1.5 |  | COc1cnc(C(=O)Nc2ccc(F)c([C@@]3(C)N=C(N)O[C@H](C(F)F)[C@@H]3C)c2)cn1 [Compound I-86]
 | 0.9 |  | CC[C@H]1SC(N)=N[C@](C)(c2cc(NC(=O)c3ccc(OCF)cn3)ccc2F)[C@H]1F [Compound I-67]
 | 1.2 |  | CC(F)(F)[C@H]1OC(N)=N[C@](C)(c2cc(NC(=O)c3cnc(OCC(F)F)cn3)ccc2F)[C@H]1F [Compound I-77]
 | 0.92 |  | COc1cnc(C(=O)Nc2ccc(F)c([C@@]3(C)N=C(N)O[C@H]([C@@H](C)F)[C@@H]3F)c2)cn1 [Compound I-71]
 | 0.6 |  | CC[C@H]1SC(N)=N[C@](C)(c2cc(NC(=O)c3cnc(OCF)cn3)ccc2F)[C@H]1F [Compound I-66]
 | 1 |  | CC#CCOc1cnc(C(=O)Nc2ccc(F)c([C@@]3(C)N=C(N)O[C@H](C(C)(F)F)[C@@H]3F)c2)cn1 [Compound I-76]

The next lines start with the compound.

Structure (SMILES) | IC50 [1] [nM] | ER ratio (Cell: MDR1/LLC-PK1) [2] | BA_% [3] [%]
C[C@]1(c2cc(NC(=O)c3cnc(OCF)cn3)ccc2F)N=C(N)OCC12CC(F)(F)C2 [Compound I-44] | 2.11 | 4.6 | 
Cc1nc(C(=O)Nc2ccc(F)c([C@@]3(C)N=C(N)O[C@H](C(F)(F)F)[C@@H]3C)c2)co1 [Compound I-32] | 2.39 |  | 
C[C@@H]1[C@@H](C(F)(F)F)OC(N)=N[C@]1(C)c1cc(NC(=O)c2ccc(C#N)cn2)ccc1F [Compound I-27] | 6.7 |  | 
C[C@]1(c2cc(NC(=O)c3ccc(F)cn3)ccc2F)N=C(N)OCC12CC(F)(F)C2 [Compound I-45] | 5.71 |  | 
C[C@H]1SC(N)=N[C@](C)(c2cc(NC(=O)c3ccc(OCF)cn3)ccc2F)[C@H]1F [Compound I-51] |  | 0.56 | 
C[C@@H](F)[C@H]1OC(N)=N[C@](C)(c2cc(NC(=O)c3ccc(C#N)cn3)ccc2F)[C@H]1F [Compound I-15] | 0.65 | 2.7 | 37.4
CO[C@H]1[C@@H](CF)OC(N)=N[C@]1(C)c1cc(NC(=O)c2cnc(OCF)cn2)ccc1F [Compound I-24] | 2.28 |  | 44
COc1cnc(C(=O)Nc2ccc(F)c([C@@]3(C)N=C(N)SCC34CC(F)(F)C4)c2)cn1 [Compound I-55] |  | 0.9 | 
C[C@]1(c2cc(NC(=O)c3cnc(OCF)cn3)ccc2F)N=C(N)O[C@H](CF)[C@@H]1OCC(F)(F)F [Compound I-12] | 1.88 |  | 47.4
C[C@]1(c2cc(NC(=O)c3ccc(C#N)cn3)ccc2F)N=C(N)SCC12CC(F)(F)C2 [Compound I-59] |  | 1.2 | 
CO[C@H]1[C@@H](CF)OC(N)=N[C@]1(C)c1cc(NC(=O)c2cnc(OCF)cn2)ccc1Cl [Compound I-19] | 1.2 |  | 39.1
C[C@H]1[C@H](C(F)(F)F)OC(N)=N[C@]1(C)c1cc(NC(=O)c2ccc(C#N)cn2)ccc1F [Compound I-29] | 93.5 |  | 
C[C@H]1[C@@H](C(F)F)OC(N)=N[C@]1(C)c1cc(NC(=O)c2cnc(OCF)cn2)ccc1F [Compound I-33] | 1.07 | 3.2 | 
C[C@]1(c2cc(NC(=O)c3ccc(F)cn3)ccc2F)N=C(N)O[C@H](CF)[C@@H]1OCC(F)(F)F [Compound I-11] | 4.21 |  | 
COc1ccc(C(=O)Nc2ccc(F)c([C@@]3(C)N=C(N)S[C@H](C)[C@@H]3F)c2)nc1 [Compound I-50] |  | 1.1 | 
C[C@]1(c2cc(NC(=O)c3ccc(C#N)cn3)ccc2F)N=C(N)O[C@H](CF)[C@@H]1OCC(F)(F)F [Compound I-10] | 0.708 | 4 | 46.3
CO[C@H]1[C@@H](CF)OC(N)=N[C@]1(C)c1cc(NC(=O)c2ccc(C#N)cn2)ccc1Cl [Compound I-18] | 0.573 |  | 
COc1cnc(C(=O)Nc2ccc(F)c([C@@]3(C)N=C(N)O[C@H]([C@H](C)F)[C@@H]3F)c2)cn1 [Compound I-17] | 3.23 | 0.73 | 
Cc1cc(C#N)cnc1C(=O)Nc1ccc(F)c([C@@]2(C)N=C(N)S[C@H](C)[C@@H]2F)c1 [Compound I-52] |  | 2.1 | 39.1
C[C@H]1[C@@H](C(F)F)OC(N)=N[C@]1(C)c1cc(NC(=O)c2ccc(C#N)cn2)ccc1F [Compound I-31] | 0.668 | 2.9 | 
CO[C@H]1[C@@H](CF)OC(N)=N[C@]1(C)c1cc(NC(=O)c2ccc(F)cn2)ccc1Cl [Compound I-20] | 4.19 |  | 
CO[C@H]1[C@@H](CF)OC(N)=N[C@]1(C)c1cc(NC(=O)c2ccc(F)cn2)ccc1F [Compound I-25] | 4.31 |  | 
